Experimental data published in patent publication US20250084074A1, “SUBSTITUTED HETEROCYCLES AS HSET INHIBITORS” (MERCK PATENT GMBH, priority 2022, published 2025).
Counter-ions that a name gives are not always drawn.

molecular target: HSET full length protein (Homo sapiens (Human), UniProt Q9BW19); test: HSET ADP-Glo Assay S - 3 μM ATP; assay type: biochemical; conditions: 5 nM HSET, 70 μg/mL microtubule, 80 min at rt, read-out: COMBINED HSET ADP GLO IC50
Method in brief: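 ADP-Glo luminescence read-out: ATPase reaction at 3 μM ATP, 80 min at room temperature, after a 10 min compound preincubation. Enzyme was full-length human HSET at 5 nM, stimulated by 70 μg/mL paclitaxel-stabilised bovine microtubules in HEPES pH 6.8 buffer with MgCl2, EGTA, Triton X-100 and DTT.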

HSET full length protein, sequence (Q9BW19 whole entry): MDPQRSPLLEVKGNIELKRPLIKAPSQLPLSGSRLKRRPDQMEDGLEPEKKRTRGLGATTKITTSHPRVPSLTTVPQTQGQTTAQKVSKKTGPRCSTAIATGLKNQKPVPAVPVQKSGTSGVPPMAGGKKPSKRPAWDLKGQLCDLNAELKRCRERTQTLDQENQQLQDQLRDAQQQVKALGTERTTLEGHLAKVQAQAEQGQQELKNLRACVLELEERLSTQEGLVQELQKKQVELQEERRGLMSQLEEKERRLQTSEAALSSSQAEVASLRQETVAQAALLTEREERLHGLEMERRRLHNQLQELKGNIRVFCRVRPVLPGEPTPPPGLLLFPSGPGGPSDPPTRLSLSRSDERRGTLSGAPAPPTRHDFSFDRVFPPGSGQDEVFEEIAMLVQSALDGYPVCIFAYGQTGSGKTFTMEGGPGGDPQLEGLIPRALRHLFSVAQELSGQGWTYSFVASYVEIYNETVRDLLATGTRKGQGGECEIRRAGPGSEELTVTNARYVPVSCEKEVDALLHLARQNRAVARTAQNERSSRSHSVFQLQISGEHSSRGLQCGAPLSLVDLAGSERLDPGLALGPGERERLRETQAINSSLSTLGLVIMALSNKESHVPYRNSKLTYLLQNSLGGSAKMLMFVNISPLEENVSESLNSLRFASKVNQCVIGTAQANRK

Row | IC50 | Structure (SMILES)
1 | 10 nM | CNCCC[C@@H](CC(=O)Nc1nc(C)c(C(=O)OC(C)C)s1)Nc1nccc2ccc(-c3noc(C)n3)cc12 [Example 167, Isopropyl (S)-4-methyl-2-(3-((7-(5-methyl-1,2,4-oxadiazol-3-yl)isoquinolin-1-yl)amino)-6-(methylamino)hexanamido)thiazole-5-carboxylate]
2 | 3 nM | CNCCC[C@@H](CC(=O)Nc1nc(C)c(C(=O)OC(C)(C)C)s1)Nc1nccc2ccc(-c3noc(C)n3)cc12 [Example 168, tert-Butyl (S)-4-methyl-2-(3-((7-(5-methyl-1,2,4-oxadiazol-3-yl)isoquinolin-1-yl)amino)-6-(methylamino)hexanamido)thiazole-5-carboxylate]
3 | 265 nM | CNCCC[C@@H](CC(=O)Nc1nc(C)c(C(=O)O)s1)Nc1nccc2ccc(-c3noc(C)n3)cc12 [Example 169, (S)-4-methyl-2-(3-((7-(5-methyl-1,2,4-oxadiazol-3-yl)isoquinolin-1-yl)amino)-6-(methylamino)hexanamido)thiazole-5-carboxylic acid]
4 | 4 nM | CNCCC[C@@H](CC(=O)Nc1nc(C)c(C(=O)OC2CCC(F)(F)C2)s1)Nc1nccc2ccc(-c3noc(C)n3)cc12 (stereo partly drawn) [Example 170, 3,3-Difluorocyclopentyl 4-methyl-2-((S)-3-((7-(5-methyl-1,2,4-oxadiazol-3-yl)isoquinolin-1-yl)amino)-6-(methylamino)hexanamido)thiazole-5-carboxylate]
5 | 149 nM | CNCCC[C@@H](CC(=O)Nc1nc(C)c(C(C)(C)C)s1)Nc1nccc2ccc(-c3noc(C)n3)cc12 [Example 171, (S)-N-(5-(tert-butyl)-4-methylthiazol-2-yl)-3-((7-(5-methyl-1,2,4-oxadiazol-3-yl)isoquinolin-1-yl)amino)-6-(methylamino)hexanamide]
6 | 6 nM | CCCOC(=O)c1sc(NC(=O)C[C@H](CCCNC)Nc2nccc3ccc(-c4noc(C)n4)cc23)nc1C [Example 172, Propyl (S)-4-methyl-2-(3-((7-(5-methyl-1,2,4-oxadiazol-3-yl)isoquinolin-1-yl)amino)-6-(methylamino)hexanamido)thiazole-5-carboxylate]
7 | 63 nM | CCCOC(=O)c1sc(NC(=O)[C@H](N)CNC(=O)c2cccc(-c3noc(C)n3)c2)nc1C [Example 173, Propyl (R)-2-(2-amino-3-(3-(5-methyl-1,2,4-oxadiazol-3-yl)benzamido)propanamido)-4-methylthiazole-5-carboxylate formate]
8 | 8 nM | CCCOC(=O)c1sc(NC(=O)[C@@H](N)CNc2nccc3ccc(-c4noc(C)n4)cc23)nc1C [Example 174, Propyl (S)-2-(2-amino-3-((7-(5-methyl-1,2,4-oxadiazol-3-yl)isoquinolin-1-yl)amino)propanamido)-4-methylthiazole-5-carboxylate]
9 | 335 nM | CCCOC(=O)c1sc(NC(=O)[C@H](CNC(=O)c2cccc(-c3noc(C)n3)c2)N(C)C)nc1C [Example 175, Propyl (S)-2-(2-(dimethylamino)-3-(3-(5-methyl-1,2,4-oxadiazol-3-yl)benzamido)propanamido)-4-methylthiazole-5-carboxylate formate]
10 | 1 nM | CCCOC(=O)c1sc(NC(=O)[C@H](O)CNc2nccc3ccc(-c4noc(C)n4)cc23)nc1C [Example 176, Propyl (R)-2-(2-hydroxy-3-((7-(5-methyl-1,2,4-oxadiazol-3-yl)isoquinolin-1-yl)amino)propanamido)-4-methylthiazole-5-carboxylate]
11 | 2 nM | Cc1nc(-c2ccc3ccnc(NC[C@@H](O)C(=O)Nc4nc(C)c(C(=O)OC(C)(C)C)s4)c3c2)no1 [Example 177, tert-Butyl (R)-2-(2-hydroxy-3-((7-(5-methyl-1,2,4-oxadiazol-3-yl)isoquinolin-1-yl)amino)propanamido)-4-methylthiazole-5-carboxylate]
12 | 2 nM | CCCOC(=O)c1sc(NC(=O)[C@@H](O)CNc2nccc3ccc(-c4noc(C)n4)cc23)nc1C [Example 178, Propyl (S)-2-(2-hydroxy-3-((7-(5-methyl-1,2,4-oxadiazol-3-yl)isoquinolin-1-yl)amino)propanamido)-4-methylthiazole-5-carboxylate]
13 | 43 nM | Cc1nc(-c2ccc3ccnc(NC[C@H](O)C(=O)Nc4nc(C)c(CC(C)C)s4)c3c2)no1 [Example 179, (S)-2-hydroxy-N-(5-isobutyl-4-methylthiazol-2-yl)-3-((7-(5-methyl-1,2,4-oxadiazol-3-yl)isoquinolin-1-yl)amino)propenamide]
14 | 2 nM | Cc1nc(-c2ccc3ccnc(NC[C@H](O)C(=O)Nc4nc(C)c(C(=O)OC(C)(C)C)s4)c3c2)no1 [Example 180, tert-Butyl (S)-2-(2-hydroxy-3-((7-(5-methyl-1,2,4-oxadiazol-3-yl)isoquinolin-1-yl)amino)propanamido)-4-methylthiazole-5-carboxylate]
15 | 14 nM | Cc1nc(NC(=O)[C@@H](O)CNc2nccc3ccc(-c4cnn(C)c4)cc23)sc1C(=O)OC(C)(C)C [Example 181, tert-Butyl (S)-2-(2-hydroxy-3-((7-(1-methyl-1 H-pyrazol-4-yl)isoquinolin-1-yl)amino)propanamido)-4-methylthiazole-5-carboxylate]
16 | 57 nM | CCCc1nc(-c2cc(NC(=O)[C@@H](O)CNc3nccc4ccc(-c5noc(C)n5)cc34)nn2C)no1 [Example 182, (S)-2-hydroxy-3-((7-(5-methyl-1,2,4-oxadiazol-3-yl)isoquinolin-1-yl)amino)-N-(1-methyl-5-(5-propyl-1,2,4-oxadiazol-3-yl)-1 H-pyrazol-3-yl)propenamide]
17 | 17300 nM | CCCc1nc(-c2cc(NC(=O)[C@@H](O)CNc3nccc4ccc(C)cc34)nn2C)no1 [Example 183, (S)-2-hydroxy-N-(1-methyl-5-(5-propyl-1,2,4-oxadiazol-3-yl)-1 H-pyrazol-3-yl)-3-((7-methylisoquinolin-1-yl)amino)propanamide]
18 | 34 nM | Cc1ccc2ccnc(NC[C@@H](O)C(=O)Nc3nc(C)c(C(=O)OC(C)(C)C)s3)c2c1 [Example 184, tert-Butyl (R)-2-(2-hydroxy-3-((7-methylisoquinolin-1-yl)amino)propanamido)-4-methylthiazole-5-carboxylate]
19 | 20 nM | Cc1ccc2ccnc(NC[C@H](O)C(=O)Nc3nc(C)c(C(=O)OC(C)(C)C)s3)c2c1 [Example 185, tert-Butyl (S)-2-(2-hydroxy-3-((7-methylisoquinolin-1-yl)amino)propanamido)-4-methylthiazole-5-carboxylate]
20 | 30 nM | CCCOC(=O)c1sc(NC(=O)[C@H](CNc2nccc3ccc(-c4noc(C)n4)cc23)OC)nc1C [Example 186, Propyl (S)-2-(2-methoxy-3-((7-(5-methyl-1,2,4-oxadiazol-3-yl)isoquinolin-1-yl)amino)propanamido)-4-methylthiazole-5-carboxylate]
21 | 52 nM | Cc1nc(-c2ccc3ccnc(NC[C@H](O)C(=O)Nc4nc(C)c(C(C)(C)C)s4)c3c2)no1 [Example 187, (S)-N-(5-(tert-butyl)-4-methylthiazol-2-yl)-2-hydroxy-3-((7-(5-methyl-1,2,4-oxadiazol-3-yl)isoquinolin-1-yl)amino)propenamide]
22 | 270 nM | CCCCCc1cc(NC(=O)[C@@H](O)CNc2nccc3ccc(-c4noc(C)n4)cc23)nn1C [Example 188, (S)-2-hydroxy-3-((7-(5-methyl-1,2,4-oxadiazol-3-yl)isoquinolin-1-yl)amino)-N-(1-methyl-5-pentyl-1 H-pyrazol-3-yl)propenamide]
23 | 616 nM | CCCCCc1cc(NC(=O)[C@H](O)CNc2nccc3ccc(-c4noc(C)n4)cc23)nn1C [Example 189, (R)-2-hydroxy-3-((7-(5-methyl-1,2,4-oxadiazol-3-yl)isoquinolin-1-yl)amino)-N-(1-methyl-5-pentyl-1 H-pyrazol-3-yl)propenamide]
24 | 726 nM | Cc1nc(-c2ccc3ccnc(NC[C@@H](O)C(=O)Nc4nc(C)c(C(C)(C)C)s4)c3c2)no1 [Example 190, (R)-N-(5-(tert-butyl)-4-methylthiazol-2-yl)-2-hydroxy-3-((7-(5-methyl-1,2,4-oxadiazol-3-yl)isoquinolin-1-yl)amino)propanamide]
25 | 284 nM | Cc1nc(-c2ccc3ccnc(NC[C@@H](O)C(=O)Nc4nc(C)c(CC(C)C)s4)c3c2)no1 [Example 191, (R)-2-hydroxy-N-(5-isobutyl-4-methylthiazol-2-yl)-3-((7-(5-methyl-1,2,4-oxadiazol-3-yl)isoquinolin-1-yl)amino)propenamide]
26 | 461 nM | Cc1nc(-c2ccc3ccnc(NC[C@@H](O)C(=O)Nc4nc(C)c(C5(C(F)(F)F)CC5)s4)c3c2)no1 [Example 192, (R)-2-hydroxy-3-((7-(5-methyl-1,2,4-oxadiazol-3-yl)isoquinolin-1-yl)amino)-N-(4-methyl-5-(1-(trifluoromethyl)cyclopropyl)thiazol-2-yl)propanamide]
27 | 5 nM | Cc1nc(-c2cccc(C(=O)N[C@@H](CC#N)CC(=O)Nc3nc(C)c(C(=O)OC(C)(C)C)s3)c2)no1 [Example 193, tert-Butyl 2-[(3S)-4-cyano-3-{[3-(5-methyl-1,2,4-oxadiazol-3-yl)phenyl]form, amido}-butanamido]-4-methyl-1,3-thiazole-5-carboxylate]
28 | 96 nM | Cc1nc(-c2cccc(C(=O)N[C@H](CC#N)CC(=O)Nc3nc(C)c(C(=O)OC(C)(C)C)s3)c2)no1 [Example 194, tert-Butyl 2-[(3R)-4-cyano-3-{[3-(5-methyl-1,2,4-oxadiazol-3-yl)phenyl]form-amido}butanamido]-4-methyl-1,3-thiazole-5-carboxylate]
29 | 12 nM | Cc1nc(-c2cccc(C(=O)N[C@@H](CC#N)CC(=O)Nc3nc(C)c(C(=O)OC(C)C)s3)c2)no1 [Example 195, Propan-2-yl 2-[(3S)-4-cyano-3-{[3-(5-methyl-1,2,4-oxadiazol-3-yl)phenyl]form-amido}butanamido]-4-methyl-1,3-thiazole-5-carboxylate]
